One may read the EC50 as the concentration at which the effect is half-maximal.

This assay relates to Respiratory syncytial virus recombinant with luciferase (RSV-Luc5) in NHBE cells. In words: NHBE RSV-Luc5 384-well Assay (RSV FLUC NHBE 384 V2, Ex. W). The class given is cell-based. Conditions: human respiratory syncytial virus, 72 h, read-out: EC50 RSV FLUC NHBE 384 V2 (per Ex. W). An excerpt:
Example W: NHBE RSV-Luc5 384-well Assay (EC50 RSVFLUC NHBE-384)
Normal Human Bronchial Epithelial (NHBE) cells were purchased from Lonza (Walkersville, MD Cat #CC2540) and maintained in BEGM Bronchial Epithelial Cell Growth Medium BulletKit (Lonza CC-3170).
Cells were thawed, expanded, and were used for experiments at passage 2. Respiratory syncytial virus recombinant with luciferase (RSV-Luc5) (≥1×10^7 Infectious Units/mL (IU/mL) determined by TCID50) was purchased from Microbiologics (Saint Cloud, MN). Viral replication was determined in NHBE cells in the following manner.
Compounds are prepared in 100% DMSO in 384-well polypropylene plates (Greiner, Monroe, NC, Cat #784201) with 8 compounds per plate in grouped replicates of 4 at 10 serially diluted concentrations (1:3). The serially diluted compounds were transferred to low dead volume Echo plates (Labcyte, Sunnyvale, CA, Cat #LP-0200).
The test compounds were spotted to 384-well assay plates (Greiner, Monroe, NC, Cat#781091) at 200 nL per well using an Echo acoustic dispenser (Labcyte, Sunnyvale, CA). NHBE cells were harvested and suspended in BEGM Bronchial Epithelial Cell Growth Medium BulletKit and seeded to the pre-spotted assay plates at 5,000 cells per well in 30 μL. RSV-Luc5 virus was diluted in BEGM Bronchial Epithelial Cell Growth Medium BulletKit at 500,000 Infectious Units (IU) per mL and 10 μL per well was added to the assay plates containing cells and compounds, for an MOI of 1. The assay plates were incubated for 3 days at 37° C. and 5% CO2. At the end of incubation, One-Glo reagent (Promega, Madison, WI, Cat #E6120) was prepared. The assay plates and One-Glo reagent were equilibrated to room temperature for at least 15 minutes. 40 μL per well of One-Glo reagent was added and the plates were incubated at room temperature for 15 minutes before reading the luminescence signal on an EnVision multimode plate reader (Perkin Elmer, Waltham, MA). Remdesivir was used as positive control and DMSO was used as negative control. Values were normalized to the positive and negative controls (as 0% and 100% replication, respectively) and data was fitted using non-linear regression analysis by Gilead's dose response tool. The EC50 value for each compound was defined as the concentration reducing the viral replication by 50%.
As for `CC(C)(C)CCC(=O)OC[C@@]1(C#N)O[C@@H](c2ccc3c(N)ncnn23)[C@H](O)[C@@H]1O` [Compound 36, ((2R,3S,4R,5S)-5-(4-aminopyrrolo[2,1-f][1,2,4]triazin-7-yl)-2-cyano-3,4-dihydroxytetrahydrofuran-2-yl)methyl 4,4-dimethylpentanoate], the half-maximal effective concentration (EC50) came to 10.8 µM. The result for `CC1(C(=O)OC[C@@]2(C#N)O[C@@H](c3ccc4c(N)ncnn34)[C@H](O)[C@@H]2O)CCC1` [Compound 24, ((2R,3S,4R,5S)-5-(4-aminopyrrolo[2,1-f][1,2,4]triazin-7-yl)-2-cyano-3,4-dihydroxytetrahydrofuran-2-yl)methyl 1-methylcyclobutane-1-carboxylate] reads 10.8 µM; that for `N#C[C@]1(COC(=O)C2CC3(CCC3)C2)O[C@@H](c2ccc3c(N)ncnn23)[C@H](O)[C@@H]1O` [Compound 32, ((2R,3S,4R,5S)-5-(4-aminopyrrolo[2,1-f][1,2,4]triazin-7-yl)-2-cyano-3,4-dihydroxytetrahydrofuran-2-yl)methyl spiro[3.3]heptane-2-carboxylate], 6.7 µM; that for `CC(C)C(=O)Nc1ncnn2c([C@@H]3O[C@](C#N)(CO)[C@@H](O)[C@H]3O)ccc12` [Compound 30, N-(7-((2S,3R,4S,5R)-5-cyano-3,4-dihydroxy-5-(hydroxymethyl)tetrahydrofuran-2-yl)pyrrolo[2,1-f][1,2,4]triazin-4-yl)isobutyramide], 38.5 µM. Take `CC(C)C(=O)O[C@H]1[C@H](c2ccc3c(N)ncnn23)O[C@](C#N)(COC(=O)c2ccccc2)[C@H]1O` [Compound 22, ((2R,3S,4R,5S)-5-(4-aminopyrrolo[2,1-f][1,2,4]triazin-7-yl)-2-cyano-3-hydroxy-4-(isobutyryloxy)tetrahydrofuran-2-yl)methyl benzoate]: the EC50 was 11.3 µM. Under `[H]/N=c1/c2ccc([C@@H]3O[C@](C#N)(CO)[C@@H](O)[C@H]3O)n2ncn1COC(=O)C(C)C` [Compound 34, (7-((2S,3R,4S,5R)-5-cyano-3,4-dihydroxy-5-(hydroxymethyl)tetrahydrofuran-2-yl)-4-iminopyrrolo[2,1-f][1,2,4]triazin-3(4H)-yl)methyl isobutyrate] stands 39.1 µM; under `CC[C@@H](C)C(=O)OC[C@@]1(C#N)O[C@@H](c2ccc3c(N)ncnn23)[C@H](O)[C@@H]1O` [Compound 37, ((2R,3S,4R,5S)-5-(4-aminopyrrolo[2,1-f][1,2,4]triazin-7-yl)-2-cyano-3,4-dihydroxytetrahydrofuran-2-yl)methyl (R)-2-methylbutanoate], 9.93 µM.

Consider `CC(C)(C)CC(=O)Nc1ncnn2c([C@@H]3O[C@](C#N)(COC(=O)CC(C)(C)C)[C@@H](O)[C@H]3O)ccc12` [Compound 26, ((2R,3S,4R,5S)-2-cyano-5-(4-(3,3-dimethylbutanamido)pyrrolo[2,1-f][1,2,4]triazin-7-yl)-3,4-dihydroxytetrahydrofuran-2-yl)methyl 3,3-dimethylbutanoate], for which the EC50 worked out at 26.6 µM. The result for `CC(=O)OC[C@@]1(C#N)O[C@@H](c2ccc3c(N)ncnn23)[C@H](OC(C)=O)[C@@H]1OC(C)=O` [Compound 28, (2R,3S,4S,5S)-2-(acetoxymethyl)-5-(4-aminopyrrolo[2,1-f][1,2,4]triazin-7-yl)-2-cyanotetrahydrofuran-3,4-diyl diacetate] reads 24.6 µM. The result for `CCC(C)(C)CC(=O)OC[C@@]1(C#N)O[C@@H](c2ccc3c(N)ncnn23)[C@H](O)[C@@H]1O` [Compound 27, ((2R,3S,4R,5S)-5-(4-aminopyrrolo[2,1-f][1,2,4]triazin-7-yl)-2-cyano-3,4-dihydroxytetrahydrofuran-2-yl)methyl 3,3-dimethylpentanoate] reads 12.2 µM.

`CCC(C)(C)C(=O)OC[C@@]1(C#N)O[C@@H](c2ccc3c(N)ncnn23)[C@H](O)[C@@H]1O` [Compound 35, ((2R,3S,4R,5S)-5-(4-aminopyrrolo[2,1-f][1,2,4]triazin-7-yl)-2-cyano-3,4-dihydroxytetrahydrofuran-2-yl)methyl 2,2-dimethylbutanoate]: the EC50 stood at 9.6 µM. For `N#C[C@]1(COC(=O)Cc2ccccc2)O[C@@H](c2ccc3c(N)ncnn23)[C@H](O)[C@@H]1O` [Compound 38, ((2R,3S,4R,5S)-5-(4-aminopyrrolo[2,1-f][1,2,4]triazin-7-yl)-2-cyano-3,4-dihydroxytetrahydrofuran-2-yl)methyl 2-phenylacetate], the concentration for a half-maximal effect (EC50) was 10.6 µM. Take `N#C[C@]1(COC(=O)[C@H]2CCC(=O)O2)O[C@@H](c2ccc3c(N)ncnn23)[C@H](O)[C@@H]1O` [Compound 25, ((2R,3S,4R,5S)-5-(4-aminopyrrolo[2,1-f][1,2,4]triazin-7-yl)-2-cyano-3,4-dihydroxytetrahydrofuran-2-yl)methyl (R)-5-oxotetrahydrofuran-2-carboxylate]: the half-maximal effective concentration (EC50) is 11.7 µM. The result for `CC1(CC(=O)OC[C@@]2(C#N)O[C@@H](c3ccc4c(N)ncnn34)[C@H](O)[C@@H]2O)CCC1` [Compound 33, ((2R,3S,4R,5S)-5-(4-aminopyrrolo[2,1-f][1,2,4]triazin-7-yl)-2-cyano-3,4-dihydroxytetrahydrofuran-2-yl)methyl 2-(1-methylcyclobutyl)acetate] reads 50 µM. Under `CC(C)(CF)C(=O)OC[C@@]1(C#N)O[C@@H](c2ccc3c(N)ncnn23)[C@H](O)[C@@H]1O` [Compound 29, ((2R,3S,4R,5S)-5-(4-aminopyrrolo[2,1-f][1,2,4]triazin-7-yl)-2-cyano-3,4-dihydroxytetrahydrofuran-2-yl)methyl 3-fluoro-2,2-dimethylpropanoate] stands 13 µM; under `CC(=O)OC[C@@]1(C#N)O[C@@H](c2ccc3c(NC(=O)C(C)C)ncnn23)[C@H](O)[C@@H]1O` [Compound 23, ((2R,3S,4R,5S)-2-cyano-3,4-dihydroxy-5-(4-isobutyramidopyrrolo[2,1-f][1,2,4]triazin-7-yl)tetrahydrofuran-2-yl)methyl acetate], 14.9 µM.
